# Laboratory results published in ChEMBL document CHEMBL1201862, “PubChem BioAssay data set” (2004).
#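 1) Cells in 96-well plates. 2) Compound, 48 h, 5 concentrations. 3) Linear interpolation between surrounding doses. 4) Unreached endpoint = highest concentration. Here, GI50 denotes the concentration required for 50% inhibition of growth.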 Active and inactive are the calls of the source. Rule as the data show it: active = GI50 up to about 1.1 µM and inactive = higher.
# What was measured:
# Assay in all cases: inhibition of tumour cell growth, NCI panel, 48 h
# [1] = system: SNB-19
# [2] = system: RXF 393
# [3] = system: 786-0
# [4] = system: KM12
# [5] = system: DMS-273
# [6] = system: SF-295
# [7] = system: SK-MEL-28
# [8] = system: RPMI-8226
# [9] = system: LOX IMVI
# [10] = system: NCI-H226
# [11] = system: UO-31
# [12] = system: EKVX
# [13] = system: HOP-92
# [14] = system: SR
# [15] = system: HL-60
# [16] = system: K562
# [17] = system: UACC-257
# [18] = system: M19-MEL
# [19] = system: CAKI-1
# [20] = system: Malme-3M
# [21] = system: UACC-62
# [22] = system: NCI-H522
# [23] = system: CCRF-CEM
# [24] = system: NCI-H460
# [25] = system: TK-10
# [26] = system: HCT-15
# [27] = system: LXFL 529
# [28] = system: M14
# [29] = system: OVCAR-5
# [30] = system: SNB-75
# [31] = system: SNB-78
# [32] = system: A498
# [33] = system: HT-29
# [34] = system: HOP-62
# [35] = system: IGROV-1
# [36] = system: COLO 205
# [37] = system: SK-MEL-2
# [38] = system: XF498
# [39] = system: OVCAR-3
# [40] = system: A549
# [41] = system: NCI-H23
# [42] = system: DLD-1
# [43] = system: SW-620
# [44] = system: MOLT-4
# [45] = system: SK-MEL-5
# [46] = system: OVCAR-8
# [47] = system: ACHN
# [48] = system: HCC 2998
# [49] = system: OVCAR-4
# [50] = system: SF-539
# [51] = system: SF-268
# [52] = system: SK-OV-3
# [53] = system: U-251
# [54] = system: SN12C
# [55] = system: HCT-116
# [56] = system: KM-20L2
# [57] = system: HOP-18
# [58] = system: DMS-114
smiles,measurement,setting,value
CCOC(=O)C1C(c2ccc(Cl)cc2Cl)NC(c2ccc(C)cc2)C(C(=O)OC)S1(=O)=O (stereo not drawn),GI50,[1],> 100 µM (inactive)
same,GI50,[2],> 100 µM (inactive)
same,GI50,[3],60.5 µM (inactive)
same,GI50,[4],> 100 µM (inactive)
same,GI50,[5],85.5 µM (inactive)
same,GI50,[6],> 100 µM (inactive)
same,GI50,[7],> 100 µM (inactive)
same,GI50,[8],74.3 µM (inactive)
same,GI50,[9],81.5 µM (inactive)
same,GI50,[10],76.4 µM (inactive)
same,GI50,[11],37.9 µM (inactive)
same,GI50,[12],85.9 µM (inactive)
same,GI50,[13],12 µM (inactive)
same,GI50,[14],69 µM (inactive)
same,GI50,[15],55.8 µM (inactive)
same,GI50,[16],13.3 µM (inactive)
same,GI50,[17],22.8 µM (inactive)
same,GI50,[18],53.1 µM (inactive)
same,GI50,[19],> 100 µM (inactive)
same,GI50,[20],> 100 µM (inactive)
same,GI50,[21],53.1 µM (inactive)
same,GI50,[22],> 100 µM (inactive)
same,GI50,[23],> 100 µM (inactive)
same,GI50,[24],37.7 µM (inactive)
same,GI50,[25],> 100 µM (inactive)
same,GI50,[26],59.2 µM
same,GI50,[27],54.6 µM (inactive)
same,GI50,[28],> 100 µM (inactive)
same,GI50,[29],> 100 µM (inactive)
same,GI50,[30],20.1 µM (inactive)
same,GI50,[31],> 100 µM (inactive)
same,GI50,[32],> 100 µM (inactive)
same,GI50,[33],> 100 µM (inactive)
same,GI50,[34],> 100 µM (inactive)
same,GI50,[35],> 100 µM (inactive)
same,GI50,[36],> 100 µM (inactive)
same,GI50,[37],95.1 µM (inactive)
same,GI50,[38],3.33 µM (inactive)
same,GI50,[39],> 100 µM (inactive)
same,GI50,[40],37.8 µM (inactive)
same,GI50,[41],66.8 µM (inactive)
same,GI50,[42],> 100 µM (inactive)
same,GI50,[43],> 100 µM (inactive)
same,GI50,[44],5.46 µM (inactive)
same,GI50,[45],87.5 µM (inactive)
same,GI50,[46],> 100 µM (inactive)
same,GI50,[47],80.4 µM (inactive)
same,GI50,[48],> 100 µM (inactive)
same,GI50,[49],> 100 µM (inactive)
same,GI50,[50],> 100 µM (inactive)
same,GI50,[51],72.9 µM (inactive)
same,GI50,[52],> 100 µM (inactive)
same,GI50,[53],> 100 µM (inactive)
COc1cc(/C=C2\NC(=O)C(Cc3cc(OC)c(OC)c(C)c3OC)N(C(C)=O)C2=O)c(OC)c(C)c1OC (stereo not drawn),GI50,[1],> 100 µM (inactive)
same,GI50,[2],95.5 µM (inactive)
same,GI50,[3],> 100 µM (inactive)
same,GI50,[4],94.6 µM (inactive)
same,GI50,[5],> 100 µM (inactive)
same,GI50,[6],> 100 µM (inactive)
same,GI50,[54],> 100 µM (inactive)
same,GI50,[7],> 100 µM (inactive)
same,GI50,[8],45.6 µM (inactive)
same,GI50,[9],> 100 µM (inactive)
same,GI50,[10],59.2 µM (inactive)
same,GI50,[55],> 100 µM (inactive)
same,GI50,[11],85.1 µM (inactive)
same,GI50,[12],43.7 µM (inactive)
same,GI50,[13],29.3 µM (inactive)
same,GI50,[14],> 100 µM (inactive)
same,GI50,[15],23 µM (inactive)
same,GI50,[16],61.2 µM (inactive)
same,GI50,[17],> 100 µM (inactive)
same,GI50,[18],> 100 µM (inactive)
same,GI50,[19],54.8 µM (inactive)
same,GI50,[20],83.6 µM (inactive)
same,GI50,[21],> 100 µM (inactive)
same,GI50,[22],21.8 µM (inactive)
same,GI50,[23],45.2 µM (inactive)
same,GI50,[24],43.4 µM (inactive)
same,GI50,[25],> 100 µM (inactive)
same,GI50,[27],72.8 µM (inactive)
same,GI50,[28],> 100 µM (inactive)
same,GI50,[29],> 100 µM (inactive)
same,GI50,[30],> 100 µM (inactive)
same,GI50,[32],> 100 µM (inactive)
same,GI50,[33],> 100 µM (inactive)
same,GI50,[34],> 100 µM (inactive)
same,GI50,[35],> 100 µM (inactive)
same,GI50,[36],54.7 µM (inactive)
same,GI50,[56],> 100 µM (inactive)
same,GI50,[37],96.4 µM (inactive)
same,GI50,[39],> 100 µM (inactive)
same,GI50,[40],> 100 µM (inactive)
same,GI50,[41],> 100 µM (inactive)
same,GI50,[42],> 100 µM (inactive)
same,GI50,[43],> 100 µM (inactive)
same,GI50,[44],33.3 µM (inactive)
same,GI50,[45],42.9 µM (inactive)
same,GI50,[46],72.8 µM (inactive)
same,GI50,[47],> 100 µM (inactive)
same,GI50,[57],28.6 µM (inactive)
same,GI50,[48],> 100 µM (inactive)
same,GI50,[49],> 100 µM (inactive)
same,GI50,[50],> 100 µM (inactive)
same,GI50,[51],> 100 µM (inactive)
same,GI50,[58],60.5 µM (inactive)
same,GI50,[52],> 100 µM (inactive)
same,GI50,[53],> 100 µM (inactive)
